From patent US6191145A, “Orally-active nipecotamide glycolamide esters for the treatment of thrombosis disorders” (Ortho-McNeil Pharmaceutical, Inc., priority 1999, dated 2001)
Structures can show the parent of a compound that is named as a salt.

What was measured:
GPIIb/IIIa = GPIIb/IIIa (Homo sapiens, UniProt P05106+P08514); experiment: In vitro solid phase purified glycoprotein IIb/IIIa binding assay (fibrinogen binding); conditions: for inhibition at 50 µM: read-out: Fibrinogen Binding % Inh. (50 μM)
Description: The plate is covered and incubated overnight at 4° C. The GPIIb/IIa solution is discarded and 150 μl of 5% BSA is added and incubated at RT for 1-3 h. The plate is washed extensively with modified Tyrodes buffer. Biotinylated fibrinogen (25 μl/well) at 2×final concentration is added to the wells that contain the test compounds (25 μl/well). The plate is covered and incubated at RT for 2-4 h. Twenty minutes prior to incubation completion, one drop of Reagent A (Vecta Stain ABC Horse Radish Peroxidase kit, Vector Laboratories, Inc.) and one drop Reagent B are added with mixing to 5 mL modified Tyrodes buffer mix and let stand. The ligand solution is discarded and the plate washed (5×200 μl/well) with modified Tyrodes buffer. Vecta Stain HRP-Biotin-Avidin reagent (50 μl/well, as prepared above) is added and incubated at RT for 15 min. The Vecta Stain solution is discarded and the wells washed (5×200 μl/well) with modified Tyrodes buffer. Developing buffer (10 mL of 50 mM citrate/phosphate buffer @ pH 5.3, 6 mg 2-phenylenediamine, 6 μl 30% H2 O2; 50 μl/well) is added and incubated at RT for 3-5 min, and then 2N H2 SO4 (50 μl/well) is added. The absorbance is read at 490 nm.

[1] = tested on: Thrombin-induced aggregation of gel-filtered platelets; experiment: In vitro inhibition of thrombin-induced gel-filtered platelet aggregation; type: cell-based; conditions: Homo sapiens; for inhibition at 50 µM: read-out: Platelet Aggregation % Inh. (50 μM)
Description: The percentage of platelet aggregation is calculated as an increase in light transmission of compound-treated platelet concentrate vs. control-treated platelet concentrate. Human blood is obtained from drug free, normal donors into tubes containing 0.13M sodium citrate. Platelet rich plasma (PRP) is collected by centrifugation of whole blood at 200×g for 10 min at 25° C. The PRP (5 mL) is gel filtered through Sepharose 2B (bed volume 50 mL), and the platelet count is adjusted to 2×10^7 platelets per sample. The following constituents are added to a siliconized cuvette: concentrated platelet filtrate and Tyrode's buffer (0.14M NaCl, 0.0027M KCl, 0.012M NaHCO3,0.76 mM Na2 HPO4, 0.0055M glucose, 2 mg/mL BSA and 5.0 mM HEPES @ pH 7.4) in an amount equal to 350 μl, 50 μl of 20 mM calcium and 50 μl of the test compound. Aggregation is monitored in a BIODATA aggregometer for the 3 min following the addition of agonist (thrombin 50 μl of 1 unit/mL).

[2] = tested on: collagen-induced ex vivo platelet aggregation; experiment: Ex vivo dog study: duration of >50% inhibition of collagen-induced ex vivo platelet aggregation; type: in vivo
Description: Adult mongrel dogs (8-13 kg) were anesthetized with sodium pentobarbital (35 mg/kg, i.v.) and artificially respired. Arterial blood pressure and heart rate were measured using a Millar catheter-tip pressure transducer inserted in a femoral artery. Another Millar transducer was placed in the left ventricle (LV) via a carotid artery to measure LV end diastolic pressure and indices of myocardial contractility. A lead II electrocardiogram was recorded from limb electrodes. Catheters were placed in a femoral artery and vein to sample blood and infuse drugs, respectively. Responses were continuously monitored using a Modular Instruments data aquisition system.
Arterial blood samples (5-9 ml) were withdrawn into tubes containing 3.8% sodium citrate to prepare platelet rich plasma (PRP) and to determine effects on coagulation parameters: prothrombin time (PT) and activated partial thromboplastin time (APTT). Separate blood samples (1.5 ml) were withdrawn in EDTA to determine hematocrit and cell counts (platelets, RBC's and white cells). Template bleeding times were obtained from the buccal surface using a symplate incision devise and Whatman filter paper.
Aggregation of PRP was performed using a BioData aggregometer. Aggregation of whole blood used a Chronolog impedance aggregometer. PT and APTT were determined on either a BioData or ACL 3000+ coagulation analyser. Cells were counted with a Sysmex K-1000.
Compounds were solubilized in a small volume of dimethylformamide (DMF) and diluted with saline to a final concentration of 10% DMF. Compounds were administered by the intravenous route with a Harvard infusion pump. Doses was administered over a 15 min interval at a constant rate of 0.33 ml/min. Data were obtained after each dose and in 30 min intervals following the end of drug administration. Oral doses were administered as aqueous solutions via syringe.

[3] = tested on: thrombin-induced platelet aggregation; conditions: L. Alig, J. Med. Chem. 1992, 35, 4393; read-out: IC50 against in vitro thrombin-induced platelet aggregation; cited from earlier work

Sequence of GPIIb/IIIa (P08514 32-887 limits assumed): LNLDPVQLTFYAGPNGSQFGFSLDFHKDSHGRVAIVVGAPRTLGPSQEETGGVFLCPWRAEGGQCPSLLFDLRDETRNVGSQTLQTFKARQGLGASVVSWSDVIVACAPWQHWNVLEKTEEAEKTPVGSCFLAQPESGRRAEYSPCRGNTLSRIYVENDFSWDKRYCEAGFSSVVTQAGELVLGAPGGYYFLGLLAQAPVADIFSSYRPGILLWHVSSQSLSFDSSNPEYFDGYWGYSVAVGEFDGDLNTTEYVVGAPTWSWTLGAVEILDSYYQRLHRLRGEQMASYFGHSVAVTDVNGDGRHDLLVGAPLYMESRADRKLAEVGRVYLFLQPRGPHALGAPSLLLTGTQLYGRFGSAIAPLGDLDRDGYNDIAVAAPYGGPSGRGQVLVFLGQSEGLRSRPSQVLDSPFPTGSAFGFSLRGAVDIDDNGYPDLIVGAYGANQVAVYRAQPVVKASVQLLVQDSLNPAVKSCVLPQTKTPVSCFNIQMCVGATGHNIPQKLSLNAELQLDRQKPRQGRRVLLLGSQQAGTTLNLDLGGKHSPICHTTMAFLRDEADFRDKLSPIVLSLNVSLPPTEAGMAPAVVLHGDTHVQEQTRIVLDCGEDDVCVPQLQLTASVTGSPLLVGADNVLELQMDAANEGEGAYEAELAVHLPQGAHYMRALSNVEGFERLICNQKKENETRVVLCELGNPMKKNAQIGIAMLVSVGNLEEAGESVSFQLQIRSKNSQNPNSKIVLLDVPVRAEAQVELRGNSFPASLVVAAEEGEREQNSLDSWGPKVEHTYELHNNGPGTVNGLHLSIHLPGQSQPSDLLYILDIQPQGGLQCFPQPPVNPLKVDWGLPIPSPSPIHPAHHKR
Sequence of GPIIb/IIIa (P08514 891-1039 limits assumed): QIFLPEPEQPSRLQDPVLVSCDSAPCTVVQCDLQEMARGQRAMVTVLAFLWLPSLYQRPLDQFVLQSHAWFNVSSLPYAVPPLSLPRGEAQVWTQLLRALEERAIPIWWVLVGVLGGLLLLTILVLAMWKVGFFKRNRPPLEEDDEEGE
Sequence of GPIIb/IIIa (P05106 27-788): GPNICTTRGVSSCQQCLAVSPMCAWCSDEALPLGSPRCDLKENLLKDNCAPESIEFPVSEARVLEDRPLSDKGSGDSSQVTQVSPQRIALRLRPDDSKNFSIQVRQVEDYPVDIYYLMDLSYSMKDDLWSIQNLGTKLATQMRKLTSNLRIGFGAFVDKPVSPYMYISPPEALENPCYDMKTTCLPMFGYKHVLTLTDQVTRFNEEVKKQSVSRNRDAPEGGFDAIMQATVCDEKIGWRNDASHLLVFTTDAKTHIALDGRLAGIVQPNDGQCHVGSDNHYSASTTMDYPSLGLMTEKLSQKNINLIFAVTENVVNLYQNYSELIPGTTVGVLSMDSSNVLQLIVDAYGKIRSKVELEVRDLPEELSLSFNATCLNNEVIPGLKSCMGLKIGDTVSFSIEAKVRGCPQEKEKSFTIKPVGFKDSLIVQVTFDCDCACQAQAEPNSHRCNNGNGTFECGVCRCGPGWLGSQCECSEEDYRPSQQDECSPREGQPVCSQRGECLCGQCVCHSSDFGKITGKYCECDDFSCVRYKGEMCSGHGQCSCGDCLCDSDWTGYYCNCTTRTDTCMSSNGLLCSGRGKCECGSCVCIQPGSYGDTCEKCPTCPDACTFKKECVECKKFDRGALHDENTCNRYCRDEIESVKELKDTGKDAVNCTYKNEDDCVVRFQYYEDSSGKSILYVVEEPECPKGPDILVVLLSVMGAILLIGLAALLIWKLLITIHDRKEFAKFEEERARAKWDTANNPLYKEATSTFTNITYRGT

| Structure (SMILES) | IC50 (GPIIb/IIIa) [nM] | inhibition at 50 µM (GPIIb/IIIa) [%] | IC50 [1] [nM] | inhibition at 50 µM [1] [%] | Duration of >50% inhibition of collagen-induced ex vivo platelet aggregation, intravenous dosing ([2]; 0.3 mpk) [min] | Duration of >50% inhibition of collagen-induced ex vivo platelet aggregation, oral dosing ([2]; 3 mpk) [min] | Duration of >50% inhibition of collagen-induced ex vivo platelet aggregation, intravenous dosing ([2]; 1.0 mpk) [min] | Duration of >50% inhibition of collagen-induced ex vivo platelet aggregation, intravenous dosing ([2]; 0.1 mpk) [min] | Duration of >50% inhibition of collagen-induced ex vivo platelet aggregation, oral dosing ([2]; 1 mpk) [min] | IC50 [3] [nM] |
| --- | --- | --- | --- | --- | --- | --- | --- | --- | --- | --- |
| CCN(CC)C(=O)COC(=O)C[C@H](NC(=O)[C@@H]1CCCN(C(=O)CCC2CCNCC2)C1)c1cncc(Br)c1 [Compound 3] | 0.9 | 100 | 190 | 100 |  | 90 |  |  |  |  |
| CCN(CC)C(=O)COC(=O)[C@H](CNC(=O)[C@@H]1CCCN(C(=O)CCC2CCNCC2)C1)NC(=O)OCc1ccccc1 [Compound 4, N-3-(4-Piperidinepropionyl)-R-(-)nipecotyl-[(S)-2-benzyloxycarbonylamino-3-amino]propionic acid 2-(Diethylamino)-2-oxoethyl ester.HCl] | 2 | 100 | 290 | 100 |  | > 240 |  | 60 |  |  |
| CN(CC(=O)c1ccc(OCC(=O)O)c(OCC(=O)O)c1)C(=O)c1ccc(C(=N)N)cc1 [Ro-438857] |  |  |  |  |  |  |  |  |  | 94 |
| O=C(N[C@@H](CNC(=O)[C@@H]1CCCN(C(=O)CCC2CCNCC2)C1)C(=O)O)OCc1ccccc1 [carboxylic acid congener, reference compound] |  |  |  |  |  | 180 |  |  |  |  |

Further compounds by falling IC50 (GPIIb/IIIa), results first:

| IC50 (GPIIb/IIIa) [nM] | inhibition at 50 µM (GPIIb/IIIa) [%] | IC50 [1] [nM] | Structure (SMILES) | inhibition at 50 µM [1] [%] | Duration of >50% inhibition of collagen-induced ex vivo platelet aggregation, intravenous dosing ([2]; 0.3 mpk) [min] | Duration of >50% inhibition of collagen-induced ex vivo platelet aggregation, oral dosing ([2]; 3 mpk) [min] | Duration of >50% inhibition of collagen-induced ex vivo platelet aggregation, intravenous dosing ([2]; 1.0 mpk) [min] | Duration of >50% inhibition of collagen-induced ex vivo platelet aggregation, intravenous dosing ([2]; 0.1 mpk) [min] | Duration of >50% inhibition of collagen-induced ex vivo platelet aggregation, oral dosing ([2]; 1 mpk) [min] | IC50 [3] [nM] |
| --- | --- | --- | --- | --- | --- | --- | --- | --- | --- | --- |
| 9.7 | 100 | 270 | CCN(CC)C(=O)COC(=O)[C@H](CNC(=O)[C@@H]1CCCN(C(=O)/C=C/C2CCNCC2)C1)NC(=O)OCc1ccccc1 [Compound 5, N-3-(4-Piperidinepropenoyl)-R-(-)nipecotyl-[(S)-2-benzyloxycarbonylamino-3-amino]propionic acid 2-(Diethylamino)-2-oxoethyl ester.HCl] | 100 |  |  |  | 60 | > 240 |  |
| 5 | 100 | 1100 | CCN(CC)C(=O)COC(=O)C[C@H](NC(=O)[C@@H]1CCCN(C(=O)CCC2CCNCC2)C1)c1ccc2c(c1)OCO2 [Compound 2] | 100 |  | 150 | 120 |  |  |  |
| 2.5 | 100 | 510 | O=C(N[C@@H](CNC(=O)[C@@H]1CCCN(C(=O)/C=C/C2CCNCC2)C1)C(=O)OCC(=O)N1CCCCC1)OCc1ccccc1 [Compound 6, N-3-(4-Piperidinepropenoyl)-R-(-)nipecotyl-[(S)-2-benzyloxycarbonylamino-3-amino]propionic acid 2-(Piperidino)-2-oxoethyl ester.HCl] | 100 |  |  |  |  | 150 |  |
| 0.7 | 100 | 140 | CCN(CC)C(=O)COC(=O)C[C@H](NC(=O)[C@@H]1CCCN(C(=O)CCC2CCNCC2)C1)c1cccnc1 [Compound 1, N-3-(4-Piperidinepropionyl)-R-(-)-nipecotyl-[(S)-3-amino-3-(3-pyridyl)]propionic acid 2-(Diethylamino)-2-oxoethyl ester.2HCl] | 100 | 60 | > 180 |  |  |  |  |
